Columns and labels:
[1] = tested on: inner ear stria vascularis marginal cells (cell mass after suspension culture) from human iPS cells; conditions: HBSS containing 2 mM EDTA, on ice 15 minutes, 4 kDa FITC-Dextran 2 mg/mL, Day 61, versus EDTA non-treatment; FIG. 18
Protocol: The inner ear progenitor cells were obtained from human iPS cells by the same method as in Test Example 1, and suspension culture was continued until the 49th day (Day 61) after the start of the suspension culture by the same method as in Test Example 2 using the inner ear progenitor cells.
For the obtained cells, a barrier function assay was performed. Specifically, the culture after the suspension culture was put into a microtube having a volume of 1.5 mL for each cell, and centrifuged, the culture medium was discarded, and 0.5 mL of HBSS containing 2 mM EDTA was added. In addition, as a control, a sample to which HBBS containing no EDTA was added was also prepared under the same conditions. Each of the samples was placed on ice for 15 minutes, and then 4 kDa FITC-Dextran was added to each of the samples to a concentration of 2 mg/mL, and the samples were suspended and immediately observed with a confocal microscope.

OTX2 gene = OTX2 gene expression by qPCR during differentiation induction into inner ear stria vascularis marginal cells; type: cell-based, human; conditions: Day 60; insulin-free medium (N21-Ins) versus B27+N2 medium and insulin-free medium with 1.5 μM insulin added from Day 20; FIG. 17
Protocol: The differentiation from human iPS cells into inner ear progenitor cells was induced by the same method as in Test Example 1, the cells on the 12th day (Day 12) from the start of the differentiation induction were detached off with Accutase, an equal amount of PBS was added thereto, the cells were passed through a nylon mesh (pore size: 40 μm), and the number of cells was counted with a hemocytometer.
The cells were suspended to a concentration of 5×10^5 cells/10 mL and seeded in a low adhesion 6-well plate (trade name “Corning Ultra-Low Attachment Plate”, Corning Inc.), and suspension culture was started under low oxygen conditions (4% of O2, 5% of CO2). […]
In any of the above Conditions 1) to 3), the cells on the 48th day (Day 60) after the start of the suspension culture were collected, and the expression level of the OTX2 gene, which is known to be expressed on the Reissner's membrane, which is an inner ear organ, and known to be poorly expressed in the inner ear stria vascularis marginal cells, was quantified by qPCR in the same manner as in Test Example 1.

Row | Compound | barrier function between cells (transfer of FITC-Dextran to the inside of the cell mass) [1] | expression level of OTX2 (OTX2 gene)
1 | O=C(O)CN(CCN(CC(=O)O)CC(=O)O)CC(=O)O [EDTA] | calcium-dependent barrier function was impaired | –
2 | insulin | – | low in a case where the culture medium did not contain insulin as compared with a case where insulin was contained in the culture medium
